Results taken from patent US20080063636A1, “Variant Amyloid Protein” (priority 2004, published 2008).

System: human cultured cell HEK cells
Test: Quantification of amyloid protein secreted by HEK cells expressing APP cDNA
Type: cell-based
Design: Aβ42: unit not given here
Details: secreted by HEK cells expressing the APP cDNA, 2 days, culture supernatant
Text: Since the variant APP gene cDNA obtained in Example 1 had the variant inside the amyloid protein, a β secretase or γ secretase cleavage site was examined. Then, an expression vector of the variant APP gene cDNA was introduced into human cultured cell HEK cells known to express APP as well as to produce and secrete amyloid protein. The expression was left to occur for 2 days to obtain a culture supernatant, and an immunoprecipitated fraction obtained by using an anti-amyloid protein antibody was subjected to a mass analysis with the use of AXIMA-CFR manufactured by Shimadzu Corporation.
Note that a vacant expression vector dissolved into a normal saline was used as the control in Table 1. Also, Aβ42 represents Aβ1-42 and Aβ1-43 or Aβ1-42 (ΔE) and Aβ1-43 (ΔE), and Aβ40 represents Aβ1-40 or Aβ1-40 (ΔE).

Wildtype APP: wildtype amyloid precursor protein expressed in human cultured HEK cells
Aβ40 (Aβ40 = Aβ1-40 or Aβ1-40 (ΔE)): 200 pg/mL
Aβ42 (Aβ42 = Aβ1-42 and Aβ1-43 or their ΔE forms): 26
